From US6544994B2, “Pharmaceutical preparation for treating or preventing cardiovascular or neurological disorders by modulating of the activity of nitric oxide synthase” (Eprov AG, priority 2000, dated 2003)
Where two headings read alike, the source gives them in different places. One block for each molecule: values may come before it.

Experiments:
[1] = Competitive superoxide trapping (CST) with DEPMPO in HX/XO system, EPR; format: biochemical; conditions: for k/kd, reaction rate with superoxide relative to reference spin trap DEPMPO / k, reaction rate with superoxide: pH 7.4, 37° C.; for k, reaction rate with superoxide: based on kd=80 (Ms)^−1; for superoxide scavenging, times less potent/slower than ascorbic acid: relative to ascorbic acid
Procedure: The EPR spectra were recorded at 37° C. on a modified Bruker ESP 300. Spin trap experiments were performed with both HX/XO and eNOS. For HX/XO the solution contained 0.5 mM hypoxanthine, 12.5 mU/ml xanthine oxidase and 50 mM DEPMPO in phosphate buffer (pH 7.4). The eNOS assay contained 250 nM eNOS dimers (0.065 mg protein/ml), 0.5 mM NADPH, 10 μM L-arginine, 1 mM CaCl2, 300 U/ml catmodulin and 50 mM DEPMPO in phosphate buffer (pH 7.4).
The reaction rates with superoxide are given by k for the tested substance and kd for the reference compound DEPMPO respectively.

[2] = biological target: xanthine oxidase (XO) (Homo sapiens, UniProt P47989)
Chain of xanthine oxidase (XO) (P47989 whole entry, species assumed): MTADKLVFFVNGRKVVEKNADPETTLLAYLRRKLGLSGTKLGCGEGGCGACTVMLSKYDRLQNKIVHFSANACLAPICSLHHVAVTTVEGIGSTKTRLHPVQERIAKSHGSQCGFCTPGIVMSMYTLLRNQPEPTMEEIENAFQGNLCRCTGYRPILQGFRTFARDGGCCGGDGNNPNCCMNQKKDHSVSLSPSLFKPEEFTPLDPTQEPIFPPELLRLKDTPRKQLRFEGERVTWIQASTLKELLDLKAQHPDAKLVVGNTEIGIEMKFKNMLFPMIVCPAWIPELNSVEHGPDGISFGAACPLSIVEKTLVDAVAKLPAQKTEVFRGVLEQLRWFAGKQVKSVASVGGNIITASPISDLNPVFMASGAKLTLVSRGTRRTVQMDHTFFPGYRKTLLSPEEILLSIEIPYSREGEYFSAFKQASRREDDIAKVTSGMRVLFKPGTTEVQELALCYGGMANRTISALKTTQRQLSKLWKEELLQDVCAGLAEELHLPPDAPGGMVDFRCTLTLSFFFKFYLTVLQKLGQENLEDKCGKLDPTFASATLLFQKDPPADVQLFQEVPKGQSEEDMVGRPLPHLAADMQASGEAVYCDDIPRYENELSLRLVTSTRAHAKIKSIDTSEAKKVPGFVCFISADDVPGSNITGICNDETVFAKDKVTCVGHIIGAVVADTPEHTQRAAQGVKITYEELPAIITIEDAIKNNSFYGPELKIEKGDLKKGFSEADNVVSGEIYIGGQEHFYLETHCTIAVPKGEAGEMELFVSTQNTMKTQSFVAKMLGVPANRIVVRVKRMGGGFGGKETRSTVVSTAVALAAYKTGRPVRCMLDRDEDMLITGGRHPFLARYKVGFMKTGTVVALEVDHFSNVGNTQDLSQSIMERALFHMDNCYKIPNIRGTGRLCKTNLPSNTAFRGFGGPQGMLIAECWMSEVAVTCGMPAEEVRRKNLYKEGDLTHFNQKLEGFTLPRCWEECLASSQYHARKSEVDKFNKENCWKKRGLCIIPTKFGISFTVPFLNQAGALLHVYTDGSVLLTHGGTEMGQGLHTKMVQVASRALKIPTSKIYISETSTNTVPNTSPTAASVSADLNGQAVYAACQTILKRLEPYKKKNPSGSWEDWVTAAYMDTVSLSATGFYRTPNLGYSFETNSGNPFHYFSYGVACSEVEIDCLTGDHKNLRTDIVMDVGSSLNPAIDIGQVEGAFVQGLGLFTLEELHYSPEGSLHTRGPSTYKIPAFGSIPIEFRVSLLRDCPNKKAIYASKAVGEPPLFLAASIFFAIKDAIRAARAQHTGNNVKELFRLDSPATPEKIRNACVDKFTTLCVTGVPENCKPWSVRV
From the text: Assessment of urate levels (assessed with a uricase-hydrogen peroxide assay) is a standard method to determine enzymatic activity of XO. However, reductive substance, like vitamin C or NUHF, are known to interfere with the urate determination.

[3] = test system: microvascular endothelial bEND3 cells; assay: NO production by endothelial cells, nitrite content in supernatant; format: cell-based; conditions: preincubation 24 hours; for acetylcholine-induced nitrite production: 5-methyltetrahydrofolic acid 1 and 10 μM, sepiapterin 100 μM, p<0.05 vs. saline
Procedure: The NO production by endothelial cells was assessed by quantification of the nitrite content in the supernatant with a commercially available fluorimetric kit (Cayman Chemicals). Acetylcholine-induced NO production is presented as the difference between stimulated minus the unstimulated nitrite content.

[4] = biological target: T1, eNOS (Bos taurus, UniProt P29473); assay: NO-production by eNOS, [3H]arginine to [3H]citrulline conversion; format: biochemical, bovine; design: made in house; host or cells: E. coli; conditions: 100 μM final
Procedure: 5-methyl-(6 S)-tetrahydrofolic acid, and its stereoisomer, 5-methyl-(6R)-tetrahydrofolic acid were used in purities>99.8%. The spin trap, 5-diethoxy-phosphoryl-5-methyl-1-pyrroline-N-oxide (DEPMPO) and all other used chemicals are commercially available.
NOS activity was determined by quantifying the conversion of L-[2,3,4.5-^3H]arginine into L-[2,3,4,5-^3H]-citrulline. […] All measurements were performed in triplicate. After correction for nonspecific activity, eNOS activity was calculated from the percent conversion of [^3H]-arginine into [^3H]-citrulline and expressed as nmoles per mg protein per min.

[5] = biological target: T1, eNOS; assay: Superoxide production by eNOS, DEPMPO spin trap EPR
[6] = cited from earlier work
[7] = cited from earlier work; remark: listed apart in the source
[8] = pterin-repleted eNOS, p<0.05 vs. BH4 alone

k/kd, reaction rate with superoxide relative to reference spin trap DEPMPO ([1]; HX/XO): about 175
k/kd, reaction rate with superoxide relative to reference spin trap DEPMPO ([1]; HX/XO, listed as L-MTHF): 150
urate level after 60 minutes of incubation ([2]; 50 μM added at the beginning of the incubation, basal 128±20 μM): 48.7 ± 1.7 µM
urate level after 60 minutes of incubation ([2]; 50 μM added at the end of the incubation, just prior to urate assessment): 49.9 ± 1.9 µM
NO production ([4]; pterin-free eNOS): no significant effect on NO production
NO production [4, 8]: significant increase in NO production
SMILES: CN1c2c(nc(N)[nH]c2=O)NC[C@@H]1CNc1ccc(C(=O)N[C@@H](CCC(=O)O)C(=O)O)cc1 [5-methyl-(6 S)-tetrahydrofolic acid]
k, reaction rate with superoxide [1]: 12000 M/s
superoxide scavenging, times less potent/slower than ascorbic acid [1]: about 20 fold
acetylcholine-induced nitrite production [3]: significant-further increase in acetylcholine-induced nitrite production
effect on rate of superoxide production by pterin-free eNOS ([5]; pterin-free eNOS): does not affect the rate of superoxide production
radical adduct formation ([5]; pterin-free eNOS, 25 μM): does not cause significant changes in radical adduct formation
rate of DEPMPO adduct formation ([5]; pterin-repleted eNOS): very strong reduction in the rate of DEPMPO adduct formation

k/kd, reaction rate with superoxide relative to reference spin trap DEPMPO ([1]; HX/XO): about 175
k/kd, reaction rate with superoxide relative to reference spin trap DEPMPO ([1]; HX/XO, listed as D-MTHF): 150
NO production ([4]; pterin-free eNOS): no significant effect on NO production
NO production [4, 8]: significant increase in NO production
SMILES: CN1c2c(nc(N)[nH]c2=O)NC[C@H]1CNc1ccc(C(=O)N[C@@H](CCC(=O)O)C(=O)O)cc1 [5-methyl-(6R)-tetrahydrofolic acid]
k, reaction rate with superoxide [1]: 12000 M/s
superoxide scavenging, times less potent/slower than ascorbic acid [1]: about 20 fold
effect on rate of superoxide production by pterin-free eNOS ([5]; pterin-free eNOS): does not affect the rate of superoxide production
rate of DEPMPO adduct formation ([5]; pterin-repleted eNOS): very strong reduction in the rate of DEPMPO adduct formation

SMILES: CN1c2c(nc(N)[nH]c2=O)NCC1CNc1ccc(C(=O)N[C@@H](CCC(=O)O)C(=O)O)cc1 (stereo partly shown) [5-methyltetrahydrofolic acid, 5-methyl-5,6,7,8-tetrahydrofolic acid]
superoxide scavenging, times less potent/slower than ascorbic acid [1]: about 20 fold
effect on rate of urate production by XO [2]: does not affect the rate of urate production
nitrite release ([3]; unstimulated endothelial cells): did not affect nitrite release
systemic plasma concentrations of 5-methyltetrahydrofolic acid ([6]; intra-arterial infusion): 250 nM
amount of superoxide adducts ([5]; partially BH4-repleted eNOS, 25 μM): substantial reduction in the amount of superoxide adducts
factor by which superoxide production by eNOS is reduced ([5]; pterin-repleted eNOS, 50 μM, estimated from figure): 2 fold

SMILES: N=C(N)NCCC[C@H](N)C(=O)O [arginine, L-arginine]
k/kd, reaction rate with superoxide relative to reference spin trap DEPMPO ([1]; HX/XO): < 10^−2
effect on formation of DEPMPO adducts ([1]; HX/XO, up to 100 mM): did not affect the formation of DEPMPO adducts
k, reaction rate with superoxide [1]: neglibile

k/kd, reaction rate with superoxide relative to reference spin trap DEPMPO ([1]; HX/XO): 4400
SMILES: O=C1O[C@H]([C@@H](O)CO)C(O)=C1O [ascorbic acid, reference compound]
k, reaction rate with superoxide [1]: 350000 M/s
k, reaction rate with superoxide, literature value [7]: 270000 M/s

SMILES: Nc1nc2ncc(CNc3ccc(C(=O)N[C@@H](CCC(=O)O)C(=O)O)cc3)nc2c(=O)[nH]1 [folic acid, reference compound]
systemic plasma concentrations of 5-methyltetrahydrofolic acid ([6]; standard oral suppletion of folic acid 5 mg p.o.): ≤ 150 nM

SMILES: C[C@H](O)C(=O)C1=Nc2c(nc(N)[nH]c2=O)NC1 [sepiapterin, reference compound]
acetylcholine-induced nitrite production [3]: significant-further increase in acetylcholine-induced nitrite production
